Experimental data reported in paper PMC6222857, “Synthesis and Preliminary Evaluation of Biological Activity of Glycoconjugates Analogues of Acyclic Uridine Derivatives” (Molecules : A Journal of Synthetic Chemistry and Natural …, 2018).

Target: T1, β-1,4-galactosyltransferase I (β4GalT) from bovine milk (Bos taurus, UniProt P08037)
T1 construct: gene B4GALT1
T1 sequence (P08037 1-402): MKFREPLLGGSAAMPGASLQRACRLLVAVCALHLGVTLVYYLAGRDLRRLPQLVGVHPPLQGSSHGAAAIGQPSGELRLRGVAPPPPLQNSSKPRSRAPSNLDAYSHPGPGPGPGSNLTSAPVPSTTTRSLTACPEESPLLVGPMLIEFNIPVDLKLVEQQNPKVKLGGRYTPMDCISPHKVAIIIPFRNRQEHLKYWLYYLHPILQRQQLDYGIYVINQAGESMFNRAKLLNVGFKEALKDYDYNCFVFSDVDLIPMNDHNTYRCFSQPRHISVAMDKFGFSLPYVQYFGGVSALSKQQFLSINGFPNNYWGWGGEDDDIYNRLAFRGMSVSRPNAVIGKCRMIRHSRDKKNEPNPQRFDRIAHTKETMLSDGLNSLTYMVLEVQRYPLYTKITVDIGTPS
Experiment: RP-HPLC enzymatic assay with fluorescence detection: galactose transfer from UDP-Gal to esculine
Format: biochemical

IC50: 710 µM
SMILES: O=C(CCOCn1ccc(=O)[nH]c1=O)Nc1ccc(S[C@@H]2O[C@H](CO)[C@@H](O)[C@H](O)[C@H]2O)nc1 [compound 64, Glycoconjugate 64]
